Read-outs that look alike come from different tables or passages of the source.
Columns and labels:
[1] = MTX 15-25 mg/m^2 PO, n=22, prior art; cited from earlier work
[2] = MTX 15-25 mg/m^2, pediatric patients, n=22, prior art; cited from earlier work
[3] = oral doses greater than about 7.5 mg/m^2; cited from earlier work
[4] = MTX 15-25 mg/m^2 PO, n=38, prior art; cited from earlier work
[5] = system: standard and high-risk ALL; settings: for Toxicity Component: Antifolate dose causing 5.8% of the population to have the toxicity: Elevations in liver enzymes >5 times normal (severe hepatotoxicity)
[6] = mice, 4 weekly ip doses (aminopterin 0.03 mg/kg, methotrexate 0.3 mg/kg); days 1 and 22 after last dose
[7] = AMT 2 mg/m^2 PO x 2 (n=75), MTX 25 mg/m^2 PO x 4 (n=41)
[8] = AMT 2 mg/m^2 PO x 2 (n=81), MTX 25 mg/m^2 PO x 4 (n=42)
[9] = AMT 2 mg/m^2 PO x 2 (n=104), MTX 25 mg/m^2 PO x 4 (n=63)

Q: For CN(Cc1cnc2nc(N)nc(N)c2n1)c1ccc(C(=O)N[C@@H](CCC(=O)O)C(=O)O)cc1 [MTX, methotrexate, reference compound], which “Interpatient coefficient of variation of oral bioavailability” value [1] is on record?
A: Its value is 59%.

Q: And the “Interpatient oral bioavailability (%)” value [2]?
A: The value was 44%.

Q: And the “Maximum (%) oral bioavailability” value [2]?
A: Its value is 95%.

Q: What about the “Minimum (%) oral bioavailability” value [2] of the same molecule?
A: Its value is 6%.

Q: And the oral bioavailability [3]?
A: Its oral bioavailability is at most 44%.

Q: What about the “Mean intrapatient coefficient of variation of oral bioavailability” value [4] of the same molecule?
A: Its value is 34%.

Q: And the “Event-free survival (EFS) at 24-months, Kaplan Meier” value ([5]; 25 high risk patients receiving aminopterin, standard risk patients receiving methotrexate)?
A: Its value is 86%.

Q: And the “Coefficient of variation of toxicity, absolute neutrophil count in consolidation” value [5, 7]?
A: Its value is 85%.

Q: What about the “Mean absolute neutrophil count in consolidation” value [5, 7] of the same molecule?
A: The value was 1919 cells/μL.

Q: And the “Coefficient of variation of toxicity, platelet counts in consolidation” value [5, 8]?
A: Its value is 47%.

Q: What about the “Mean platelet counts in consolidation” value [5, 8] of the same molecule?
A: Its value is 312 cells × 10^3/μL.

Q: And the “Coefficient of variation of toxicity, level of liver enzymes above normal” value [5, 9]?
A: Its value is 36%.

Q: And the “Mean level of liver enzymes above normal” value [5, 9]?
A: Its value is 177 IU/L ALT.

Q: And the “Coefficient of variation of toxicity, level of liver enzymes above normal” value ([5]; AMT 2 mg/m^2 PO x 2 (n=104), MTX 25 mg/m^2 PO x 4 (n=63), listed as methotrexate)?
A: Its value is 36%.

Q: And the “Toxicity Component: Antifolate dose with same toxicity as MTX at 100 mg/m^2/wk” value (“Toxicity Component … at 100 mg/m^2/wk” below) ([5]; Any elevation of liver enzymes)?
A: Its value is 100 mg/m^2/wk.

Q: And the “Toxicity Component: Antifolate dose causing 5.8% of the population to have the toxicity” value [5]?
A: Its value is under 100 mg/m^2/wk.

Q: What about the “Toxicity Component: Antifolate dose causing 5.8% of the population to have the toxicity” value ([5]; listed as methotrexate) of the same molecule?
A: Its value is “less than 100 mg/m^2/wk”.

Q: What about the “Toxicity Component … at 100 mg/m^2/wk” value ([5]; Hospital admissions) of the same molecule?
A: Its value is 100 mg/m^2/wk.

Q: And the “Toxicity Component … at 100 mg/m^2/wk” value ([5]; Mucositis)?
A: Its value is 100 mg/m^2/wk.

Q: And the “Toxicity Component … at 100 mg/m^2/wk” value ([5]; Myelosuppression)?
A: Its value is 100 mg/m^2/wk.

Q: And the “Toxicity Component … at 100 mg/m^2/wk” value ([5]; Neutropenia)?
A: The value was 100 mg/m^2/wk.

Q: What about the “Toxicity Component … at 100 mg/m^2/wk” value ([5]; Thrombocytopenia) of the same molecule?
A: The value was 100 mg/m^2/wk.

Q: And the “Toxicity Component … at 100 mg/m^2/wk” value ([5]; Treatment interruptions)?
A: The value was 100 mg/m^2/wk.

Q: What about the “Toxicity Component … at 100 mg/m^2/wk” value ([5]; eAMT and eMTX (marrow exposure)) of the same molecule?
A: Its value is 100 mg/m^2/wk.

Q: And the “antifolate content in liver, aminopterin vs methotrexate” value [6]?
A: Its value is “no different”.

Reference: patent US7612071B2, “Compositions and methods employing aminopterin” (Syntrix Biosystems, Inc., priority 2004, dated 2009)
